Measured values: PubChem BioAssay (NCI)
Several values for one entry are separate records, joined by “and”; a condition that tells them apart may be missing. Equal values may be shown once.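 All cell lines were grown in 96-well plates and treated with compound for 48 hours. Abbreviation: GI50, concentration required for 50% inhibition of growth. At the TGI there is no net growth.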

Key:
Assay in all cases: DTP human tumour cell line panel, 48 h
K-562 leukemia = tested on: K-562 leukemia
SW-620 colon = tested on: SW-620 colon
CCRF-CEM leukemia = tested on: CCRF-CEM leukemia
OVCAR-4 ovarian = tested on: OVCAR-4 ovarian
SK-MEL-5 melanoma = tested on: SK-MEL-5 melanoma
UACC-257 melanoma = tested on: UACC-257 melanoma
HT29 colon = tested on: HT29 colon
SF-268 CNS = tested on: SF-268 CNS
RPMI-8226 leukemia = tested on: RPMI-8226 leukemia
MDA-MB-231 breast = tested on: MDA-MB-231 breast

Row | SMILES | GI50 (K-562 leukemia) | TGI (K-562 leukemia) | GI50 (SW-620 colon) | TGI (SW-620 colon) | GI50 (CCRF-CEM leukemia) [µM] | TGI (CCRF-CEM leukemia) [µM] | GI50 (OVCAR-4 ovarian) | TGI (OVCAR-4 ovarian) | GI50 (SK-MEL-5 melanoma) [µM] | TGI (SK-MEL-5 melanoma) | GI50 (UACC-257 melanoma) | TGI (UACC-257 melanoma) | GI50 (HT29 colon) | TGI (HT29 colon) [µM] | GI50 (SF-268 CNS) [µM] | TGI (SF-268 CNS) [µM] | GI50 (RPMI-8226 leukemia) | GI50 (MDA-MB-231 breast) [µM] | TGI (MDA-MB-231 breast) [µM] | TGI (RPMI-8226 leukemia) [µM]
1 | COc1ccc(C(=O)Nc2ncc(Cc3ccc(F)cc3)s2)cc1 | 0.0377 µM | > 100 µM | 0.0449 µM | > 100 µM | 0.0446 | > 100 | 1.38 µM | > 100 µM | 0.0422 | 2.26 µM | 7.75 µM | > 100 µM | 0.0438 µM | > 100 | 0.481 | > 100 | 0.0373 µM | 0.2 | 76.6 | –
2 | CC1OC(OC2C(OC3C[C@@]4(C)C(C[C@H](O)[C@H]5[C@H](C6(C)CCC(C(C)(C)O)O6)CCC54C)[C@]4(C)CC[C@@H](O)C(C)(C)C34)OC(CO)C(O)C2O)C(O)C(O)C1O (stereo partly drawn) (tested in a mixture with another compound) | – | > 100 µM | – | > 100 µM | – | > 100 | – | > 100 µM | – | > 100 µM | – | > 100 µM | – | > 100 | – | > 100 | – | – | > 100 | > 100
3 | O=C(c1ccc(O)cc1)c1ccc(C(=O)c2ccc(O)cc2)cc1 | – | – | > 100 µM | > 100 µM | – | – | > 100 µM | > 100 µM | > 100 | > 100 µM | > 100 µM | > 100 µM | > 100 µM | > 100 | 26.6 | > 100 | 5.21 µM | 46.9 | > 100 | > 100
4 | Cc1c(N2C(=O)/C(=C\c3ccc(O)cc3)N=C2c2ccccc2)c(=O)n(-c2ccccc2)n1C | > 100 µM | > 100 µM | > 100 µM | > 100 µM | – | – | > 100 µM | > 100 µM | > 100 | > 100 µM | > 100 µM | > 100 µM | > 100 µM | > 100 | > 100 | > 100 | > 100 µM | > 100 | > 100 | > 100
5 | Cc1cc[c-]cc1.Fc1c[c-]c(-c2ccccn2)c(F)c1.N#CCC[PH+](CCC#N)c1ccccc1.[Pt+2] | 3.48 µM | > 100 µM | 2.25 µM | 5.35 µM | 3.49 | > 100 | 2.97 µM | 24.5 µM | 2.24 | 5.36 µM | 1.9 µM | 4.41 µM | 3.24 µM | 17.8 | 3.19 | 39.5 | 3.3 µM | 2.74 | 7.57 | 31.2
6 | Cc1cc(N(CCCNc2ccnc3cc(Cl)ccc23)Cc2cccs2)nc(Cl)n1 | 0.743 µM | 12.2 µM | 3.45 µM | 18.9 µM | 5.57 | > 100 | 1.69 µM | 14.6 µM | 1.45 | 3.15 µM | 3.04 µM | 11.1 µM | 1.51 µM | 12.4 | 10.5 | 29.7 | 1.43 µM | 3.36 | 17.3 | 9.71
7 | COc1ccc(-c2nnc3n(C)c(=O)c4ccccc4n23)cc1O | 0.135 µM | > 100 µM | 0.149 µM | > 100 µM | 1.81 | > 100 | 4.32 µM | > 100 µM | 0.15 | > 100 µM | – | – | 3.94 µM | 43.6 | 5.29 | > 100 | 5.01 µM | 2.29 | 31.7 | > 100
8 | Cc1ccc(C(=O)Nc2ccc(CN3CCN(C)CC3)c(C(F)(F)F)c2)cc1C#Cc1cncc2ncccc12 | – | 1.67 µM | 0.443 µM | 1.76 µM | 0.902 | 3.61 | 0.289 µM | 4.75 µM | 2.63 | 8.14 µM | 0.402 µM | 4.42 µM | 0.142 µM | 1.41 | 0.408 | 4.33 | 0.584 µM | 0.177 | 1.1 | 7.68
9 | COc1cc(C2[C@H]3C(=O)N(c4ccc(Cc5ccc(N6C(=O)[C@@H]7ON(c8ccccc8)C(c8cc(OC)c(OC)c(OC)c8)[C@@H]7C6=O)cc5)cc4)C(=O)[C@H]3ON2c2ccccc2)cc(OC)c1OC (stereo partly drawn) | – | > 100 µM | – | > 100 µM | – | > 100 | – | > 100 µM | – | > 100 µM | – | > 100 µM | – | > 100 | – | > 100 | – | – | – | > 100
10 | CC[C@](O)(C(=O)O)c1cc2n(c(=O)c1CO)Cc1cc3ccccc3nc1-2 | 0.0383 µM and 0.137 µM and 0.0357 µM | 12.9 µM and 88 µM | 0.0948 µM and 0.0713 µM and 0.025 µM | 25 µM and 34.1 µM | < 0.0025 | 4.04 | 0.305 µM and 0.0715 µM | 7.5 µM and 0.856 µM | – | 0.0383 µM and 0.156 µM and 0.0896 µM | 0.0236 µM and 0.0374 µM and 0.0873 µM | 0.278 µM and 0.953 µM and 0.582 µM | 0.0354 µM and 0.11 µM | – | – | – | 0.00677 µM and 0.0458 µM | 0.969 | 6.84 | –
11 | COc1cc(C)c(C(=O)/C=C/c2cc(OC)c(O)c(OC)c2)cc1O | – | > 100 µM | – | 70.8 µM | – | 62.7 | – | 49.3 µM | – | 33.6 µM | – | > 100 µM | – | > 100 | – | 78.4 | – | – | – | > 100
12 | COC(=O)C1CC2(c3ccc(C)cc3)C(c3ccc(C)cc3)=C(c3ccc(C)cc3)C1(c1ccc(C)cc1)S2=O (stereo not drawn) | > 100 µM | > 100 µM | > 100 µM | > 100 µM | – | – | 22.5 µM | 81.2 µM | > 100 | > 100 µM | > 100 µM | > 100 µM | 41.4 µM | > 100 | > 100 | > 100 | > 100 µM | > 100 | > 100 | > 100
13 | O=C1C[C@@H](c2ccccc2)NCCCCN(O)CCCN1 | – | – | – | > 100 µM | – | > 100 | – | > 100 µM | – | > 100 µM | – | > 100 µM | – | > 100 | – | > 100 | – | – | > 100 | > 100
14 | CC(=O)OC1CCC2(C)C(CCC3C2CCC2(C)C(C4=CC(=O)OC4)CCC32)C1 (stereo not drawn) | 2.02 µM | 5.27 µM | 32 µM | > 100 µM | 1.45 | 4.62 | 12.1 µM | 95.1 µM | 2.37 | 6.58 µM | – | – | 13.1 µM | 75.6 | 2.38 | 10.1 | 0.928 µM | 0.725 | 2.81 | 3.03
